These results are taken from ChEMBL document CHEMBL3227989, “Coenzyme--substrate adducts as inhibitors of mouse liver 3,4-dihydroxyphenylalanine decarboxylase” (J Med Chem, 1979).

Series [1] addresses T1, Aromatic-L-amino-acid decarboxylase (Mus musculus) (UniProt O88533).
T1 sequence (whole entry): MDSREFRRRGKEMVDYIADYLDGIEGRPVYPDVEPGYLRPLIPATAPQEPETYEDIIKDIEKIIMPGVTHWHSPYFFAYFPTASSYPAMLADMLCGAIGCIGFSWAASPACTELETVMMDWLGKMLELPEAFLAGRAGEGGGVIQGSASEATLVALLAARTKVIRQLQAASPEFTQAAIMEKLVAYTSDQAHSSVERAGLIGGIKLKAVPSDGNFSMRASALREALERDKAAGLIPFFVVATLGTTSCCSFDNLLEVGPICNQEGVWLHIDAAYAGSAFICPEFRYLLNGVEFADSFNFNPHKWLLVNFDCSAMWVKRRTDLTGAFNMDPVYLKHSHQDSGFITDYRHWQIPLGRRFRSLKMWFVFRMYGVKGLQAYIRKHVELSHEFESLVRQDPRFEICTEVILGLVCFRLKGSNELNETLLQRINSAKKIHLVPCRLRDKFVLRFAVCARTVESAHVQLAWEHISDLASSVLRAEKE
Nature of the series: Inhibition of ICR Swiss mouse liver dopa decarboxylase at 2 X 10^-5 M after 15 mins.

The target in series [2] is T1, Aromatic-L-amino-acid decarboxylase (Mus musculus). Nature of the series: Inhibition of ICR Swiss mouse liver dopa decarboxylase at 2 X 10^-3 M after 15 mins.
Series [3] shares this target. Nature of the series: Inhibition of ICR Swiss mouse liver dopa decarboxylase at 2 X 10^-4 M after 15 mins.
In series [4] the target is T2, Aromatic-L-amino-acid decarboxylase (Mus musculus, UniProt O88533).
T2 sequence (O88533 whole entry): T1 sequence (whole entry)
Kind of series: Inhibition of ICR Swiss mouse liver dopa decarboxylase after 15 mins.

For series [5], the target named is T1, Aromatic-L-amino-acid decarboxylase (Mus musculus). Kind of series: Inhibition of ICR Swiss mouse liver dopa decarboxylase at 10^-3 M after 15 mins.
The target is the same in series [6]. Nature of the series: Inhibition of ICR Swiss mouse liver dopa decarboxylase at 10^-4 M after 15 mins.
Series [7] shares this target. Nature of the series: Inhibition of ICR Swiss mouse liver dopa decarboxylase at 10^-5 M after 15 mins.
Compound in series [8]: Cc1ncc(COP(=O)(O)O)c(CN[C@@H](Cc2ccc(O)c(O)c2)C(=O)O)c1O
Nature of the series: Inhibition of pig liver dopa decarboxylase. Particulars: Sus scrofa.

With `Cc1ncc(COP(=O)(O)O)c(CNC(Cc2ccc(O)c(O)c2)C(=O)O)c1O` (racemic), in series [1], the inhibition stood at 63%.
As to `Cc1cnc(C)c(O)c1CNC(Cc1ccc(O)c(O)c1)C(=O)O` (racemic), the inhibition came out at 50% in series [2] and 15% in series [3].
Take `Cc1ncc(COP(=O)(O)O)c(CN[C@@H](Cc2ccc(O)cc2)C(=O)O)c1O`: in series [4], the half-inhibitory concentration (IC50) worked out at 70 µM.
Regarding `Cc1ncc(COP(=O)(O)O)c(CNC(Cc2ccccc2O)C(=O)O)c1O` (racemic), the inhibition in series [2] came to 62%; in series [1] it was 53%.
`Cc1ncc(COP(=O)(O)O)c(C2NC(C(=O)O)Cc3cc(O)c(O)cc32)c1O` (racemic) displayed an inhibition in series [5] of under 10%.
Turning to `Cc1ncc(COP(=O)(O)O)c(CN[C@@H](Cc2ccc(O)c(O)c2)C(=O)O)c1O`, 10 µM corresponded to half-maximal inhibition in series [4] (IC50). In other words, the double-digit micromolar range.
Turning to `Cc1ncc(COP(=O)(O)O)c(CN[C@@H](Cc2ccccc2)C(=O)O)c1O`, the inhibition in series [6] was 57%; in series [5], 83%; in series [2] it was 85%; in series [7] it was 17%.

B1: Aromatic-L-amino-acid decarboxylase (Sus scrofa), P80041 (protein)
chain: MNASDFRRRGKEMVDYMADYLEGIEGRQVYPDVQPGYLRPLIPATAPQEPDTFEDILQDVEKIIMPGVTHWHSPYFFAYFPTASSYPAMLADMLCGAIGCIGFSWAASPACTELETVMMDWLGKMLQLPEAFLAGEAGEGGGVIQGSASEATLVALLAARTKVVRRLQAASPGLTQGAVLEKLVAYASDQAHSSVERAGLIGGVKLKAIPSDGKFAMRASALQEALERDKAAGLIPFFVVATLGTTSCCSFDNLLEVGPICHEEDIWLHVDAAYAGSAFICPEFRHLLNGVEFADSFNFNPHKWLLVNFDCSAMWVKRRTDLTGAFKLDPVYLKHSHQGSGLITDYRHWQLPLGRRFRSLKMWFVFRMYGVKGLQAYIRKHVQLSHEFEAFVLQDPRFEVCAEVTLGLVCFRLKGSDGLNEALLERINSARKIHLVPCRLRGQFVLRFAICSRKVESGHVRLAWEHIRGLAAELLAAEEGKAEIKS
B1: in series [8], the Km amounted to 190 µM.

As usually defined, the inhibition is the percentage by which the read-out fell short of the control. Low readings indicate little suppression, high ones strong suppression. As a reminder, the IC50 is the concentration needed to halve the response being measured. Read a high IC50 as a need for much substance. Broadly, the Km is the substrate concentration at which the rate is half of its maximum.
